Assay results published in patent US10689331B2, “IDO inhibitors” (Bristol-Myers Squibb Company, priority 2015, dated 2020).

Target: T1, human IDO1 (Homo sapiens, UniProt P14902)
T1 construct: expressed in transfected cells
Assay: HEK Human IDO-1 inhibition assay (kynurenine readout, Ehrlich reagent, absorbance 490 nm)
Assay type: cell-based
Settings: human IDO1/HEK293 cells, incubated 20 hours with compound; 500 nM reference standard = 100% inhibition
Outline: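 HEK293 cells stably expressing human IDO1, treated with compound for 20 h at 37 °C in phenol red-free RPMI/10% FBS. Kynurenine detected after TCA (0.2% final, 50 °C, 30 min) by Ehrlich reagent absorbance at 490 nm; IC50 normalised to 500 nM reference standard (100%) and DMSO (0%).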

T1 sequence (P14902 whole entry): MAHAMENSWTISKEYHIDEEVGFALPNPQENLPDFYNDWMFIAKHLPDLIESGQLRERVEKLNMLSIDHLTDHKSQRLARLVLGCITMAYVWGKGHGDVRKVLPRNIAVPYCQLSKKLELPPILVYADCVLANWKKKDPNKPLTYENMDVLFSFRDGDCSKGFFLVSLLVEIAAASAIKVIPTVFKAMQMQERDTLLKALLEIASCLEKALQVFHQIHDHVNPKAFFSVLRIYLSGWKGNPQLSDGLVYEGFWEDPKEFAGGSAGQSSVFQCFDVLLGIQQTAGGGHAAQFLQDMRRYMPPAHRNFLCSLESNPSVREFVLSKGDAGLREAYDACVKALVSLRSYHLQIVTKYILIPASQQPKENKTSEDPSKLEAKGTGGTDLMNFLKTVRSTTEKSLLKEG

| Structure (SMILES) | IC50 |
| --- | --- |
| C=C(C)CN(c1ccc(OCC(=O)O)cc1NC(=O)Nc1ccc(Cl)cc1F)C1COC1 [Example 141, 2-(3-(3-(4-chloro-2-fluorophenyl)ureido)-4-((2-methylallyl)(oxetan-3-yl)amino)phenoxy)acetic acid] | ≥ 100 nM |
| C=C(C)CN1CCC(N(CC(=C)C)c2ccc(OCC(=O)O)cc2NC(=O)Nc2ccc(Cl)cc2F)CC1 [Example 142, 2-(3-(3-(4-chloro-2-fluorophenyl)ureido)-4-((2-methylallyl)(1-(2-methylallyl)piperidin-4-yl)amino)phenoxy)acetic acid] | < 100 nM |
| CC(C)CN(c1ccc(OCC(=O)O)cc1NC(=O)Nc1ccc(Cl)cc1F)C1CCOC1 (stereo not shown) [Example 144, 2-(3-(3-(4-chloro-2-fluorophenyl)ureido)-4-(isobutyl(tetrahydrofuran-3-yl)amino)phenoxy)acetic acid] | ≥ 100 nM |
| CC(C)CN(c1ccc(OC(C)C(=O)O)cc1NC(=O)Nc1ccc(Cl)cc1F)C1CCOC1 (stereo not shown) [Example 145, 2-(3-(3-(4-chloro-2-fluorophenyl)ureido)-4-(isobutyl(tetrahydrofuran-3-yl)amino)phenoxy)propanoic acid] | < 100 nM |
| CC(C)CN(c1ccc(OCC(=O)O)cc1NC(=O)Nc1ccc(Cl)cc1F)C1COC1 [Example 147, 2-(3-(3-(4-chloro-2-fluorophenyl)ureido)-4-(isobutyl(oxetan-3-yl)amino)phenoxy)acetic acid] | ≥ 100 nM |
| CC(Oc1ccc(N(CCC(F)(F)F)C2CCOCC2)c(NC(=O)Nc2ccc(Cl)cc2F)c1)C(=O)O (stereo not shown) [Example 148, 2-(3-(3-(4-chloro-2-fluorophenyl)ureido)-4-((tetrahydro-2H-pyran-4-yl)(3,3,3-trifluoropropyl)amino)phenoxy)propanoic acid] | ≥ 100 nM |
| CC(C)CN(c1ccc(OCC(=O)O)cc1NC(=O)Nc1ccc(Cl)cc1F)C1CCC(O)CC1 (stereo not shown) [Example 149, 2-(3-(3-(4-chloro-2-fluorophenyl)ureido)-4-((0-4-hydroxycyclohexyl)(isobutyl)amino)phenoxy)acetic acid] | ≥ 100 nM |
| CC(C)CN(c1ccc(OCC(=O)O)cc1NC(=O)Nc1ccc(Cl)cc1F)C1CCC(O)CC1 (stereo not shown) [Example 150, 2-(3-(3-(4-chloro-2-fluorophenyl)ureido)-4-((( )-4 hydroxycyclohexyl)(isobutyl)amino)phenoxy)acetic acid] | ≥ 100 nM |
| CC(C)CN(c1ccc(OCC(=O)O)cc1NC(=O)Nc1ccc(Cl)cc1F)C1CCOCC1 [Example 151, 2-(3-(3-(4-chloro-2-fluorophenyl)ureido)-4-(isobutyl(tetrahydro-2H-pyran-4-yl)amino)phenoxy)acetic acid] | ≥ 100 nM |
| COC1CCC(N(CC(C)C)c2ccc(OCC(=O)O)cc2NC(=O)Nc2ccc(Cl)cc2F)CC1 (stereo not shown) [Example 152, 2-(3-(3-(4-chloro-2-fluorophenyl)ureido)-4-(isobutyl(0-4-methoxycyclohexyl)amino)phenoxy)acetic acid] | ≥ 100 nM |
| CC(C)CN(c1ccc(OCC(N)=O)cc1NC(=O)Nc1ccc(Cl)cc1F)C1CCCCC1 [Example 153, 2-(3-(3-(4-chloro-2-fluorophenyl)ureido)-4-(cyclohexyl(isobutyl)amino)phenoxy)acetamide] | ≥ 100 nM |
| CC(C)CN(c1ccc(OCC(=O)Nc2ncco2)cc1NC(=O)Nc1ccc(Cl)cc1F)C1CCCCC1 [Example 154, 2-(3-(3-(4-chloro-2-fluorophenyl)ureido)-4-(cyclohexyl(isobutyl)amino)phenoxy)-N-(oxazol-2-yl)acetamide] | < 5 nM |
| CC(C)CN(c1ccc(OCC(=O)Nc2nccs2)cc1NC(=O)Nc1ccc(Cl)cc1F)C1CCCCC1 [Example 155, 2-(3-(3-(4-chloro-2-fluorophenyl)ureido)-4-(cyclohexyl(isobutyl)amino)phenoxy)-N-(thiazol-2-yl)acetamide] | ≥ 100 nM |
| CC(C)CN(c1ccc(OCc2ncco2)cc1NC(=O)Nc1ccc(Cl)cc1F)C1CCCCC1 [Example 156, 1-(4-chloro-2-fluorophenyl)-3-(2-(cyclohexyl(isobutyl)amino)-5-(oxazol-2-ylmethoxy)phenyl)urea] | < 100 nM |
| CC(C)CN(c1ccc(OC(C)c2ncco2)cc1NC(=O)Nc1ccc(Cl)cc1F)C1CCCCC1 (stereo not shown) [Example 157, 1-(4-chloro-2-fluorophenyl)-3-(2-(cyclohexyl(isobutyl)amino)-5-(1-(oxazol-2-yl)ethoxy)phenyl)urea] | < 100 nM |
| CCCN(Cc1ccccc1)c1ccc(OCC(=O)O)cc1NC(=O)Nc1ccc(Cl)cc1F [Example 158, 2-(4-(benzyl(propyl)amino)-3-(3-(4-chloro-2-fluorophenyl)ureido)phenoxy)acetic acid] | < 100 nM |

More lines, now with the values ahead:

| IC50 | Structure (SMILES) |
| --- | --- |
| ≥ 100 nM | CCCN(Cc1ccccc1)c1ccc(OCC(=O)O)cc1NC(=O)Nc1ccc(C)cc1 [Example 159, 2-(4-(benzyl(propyl)amino)-3-(3-(p-tolyl)ureido)phenoxy)acetic acid] |
| ≥ 100 nM | CCCN(Cc1ccccc1)c1ccc(OCC(=O)O)cc1NC(=O)Nc1ccc(OC(F)(F)F)cc1 [Example 160, 2-(4-(benzyl(propyl)amino)-3-(3-(4-(trifluoromethoxy)phenyl)ureido)phenoxy)acetic acid] |
| ≥ 100 nM | CCCN(Cc1ccccc1)c1ccc(OCC(=O)O)cc1NC(=O)Nc1ccc(OCC)cc1 [Example 161, 2-(4-(benzyl(propyl)amino)-3-(3-(4-ethoxyphenyl)ureido)phenoxy)acetic acid] |
| ≥ 100 nM | CCCN(Cc1ccccc1)c1ccc(OCC(=O)O)cc1NC(=O)Nc1ccc(C(F)(F)F)cc1 [Example 162, 2-(4-(benzyl(propyl)amino)-3-(3-(4-(trifluoromethyl)phenyl)ureido)phenoxy)acetic acid] |
| < 100 nM | CC(C)CN(Cc1ccc(Cl)cc1)c1ccc(OCC(=O)O)cc1NC(=O)Nc1ccc(Cl)cc1F [Example 163, 2-(3-(3-(4-chloro-2-fluorophenyl)ureido)-4-((4-chlorobenzyl)(isobutyl)amino)phenoxy)acetic acid] |
| < 100 nM | CCCN(Cc1ccc(Cl)cc1)c1ccc(OCC(=O)O)cc1NC(=O)Nc1ccc(Cl)cc1F [Example 164, 2-(3-(3-(4-chloro-2-fluorophenyl)ureido)-4-((4-chlorobenzyl)(propyl)amino)phenoxy)acetic acid] |
| ≥ 100 nM | CCCN(Cc1ccccc1)c1ccc(OCC(=O)O)cc1NC(=O)Cc1ccc(Cl)cc1F [Example 165, 2-(4-(benzyl(propyl)amino)-3-(2-(4-chloro-2-fluorophenyl)acetamido)phenoxy)acetic acid] |
| ≥ 100 nM | CCCN(Cc1ccccc1)c1ccc(OCC(=O)O)cc1NC(=O)Cc1ccc(C)cc1 [Example 166, 2-(4-(benzyl(propyl)amino)-3-(2-(p-tolyl)acetamido)phenoxy)acetic acid] |
| ≥ 100 nM | CC(C)CN(Cc1ccc(Cl)cc1)c1ccc(OCC(=O)O)cc1NC(=O)Cc1ccc(Cl)cc1F [Example 167, 2-(3-(2-(4-chloro-2-fluorophenyl)acetamido)-4-((4-chlorobenzyl)(isobutyl)amino)phenoxy)acetic acid] |
